In PMC9081605, “A High-Throughput Toxicity Screen of 42 Per- and Polyfluoroalkyl Substances (PFAS) and Functional Assessment of Migration and Gene Expression in Human Placental Trophoblast Cells” (Frontiers in Toxicology, 2022):
Entries after “also recorded” stand apart in the source; their conditions may differ.

Key:
Assay type in all cases: cell-based, human
JEG-3 cells [1] = assay: CellTiter-Glo luminescent cell viability assay (HTTS); settings: for Viability ↓, lowest concentration at which the mean response value exceeded the mean control value ± 2*SD (rough binning): decrease; for cell viability relative to vehicle control (rough binning): after 24 h, in at least one concentration
From the text: (§1) JEG-3 human choriocarcinoma trophoblastic cells (American Type Culture Collection, VA, United States) were maintained in sterile-filtered Minimum Essential Media (MEM) supplemented with L-glutamine and phenol red (Thermo Fisher Scientific, MA, United States), 10% (v/v) heat-inactivated BenchMark Fetal Bovine Serum (Gemini Bio, CA, United States), 1% (v/v) sodium pyruvate (Thermo Fisher Scientific, MA, United States), and 1% (v/v) penicillin streptomycin (Sigma Aldrich, MO, United States). Cells were maintained in an incubator at 37°C with 5% CO2. JEG-3 cells were cultured in 10 cm tissue culture plates and cell passage numbers were recorded.
(§2) A total of 42 perfluoroalkyl substances (PFAS) were evaluated (Supplementary Table S1 contains source and purity). PFAS stock solutions were maintained in 100% methanol as previous work has shown certain PFAS degrade when stored in dimethyl sulfoxide (DMSO; [Gaballah et al., 2020]). […] The vehicle control group consisted of 97.5% media + 2.5% methanol to match the concentration of methanol in the media at the highest PFAS concentration tested (500 µM). Menadione (50–500 µM) was used as a positive control for cytotoxicity assessment. PFAS were de-identified and assigned random numbers to eliminate bias. Chemical exposure plate maps were designed so that all experimental conditions were tested in at least technical duplicates per plate. The outer edges of each plate received media alone and were excluded from all analyses to avoid edge effects. Each plate map included 14 technical replicates of the vehicle control group and 14 technical replicates of media only. Biological replicates were defined as separate 384 well plates tested on separate days using different cell passages. The experimental workflow is depicted in Supplementary Figure S1.
(§3) JEG-3 cells were counted using a Z2 Coulter Particle Counter (Beckman Coulter, CA, United States) and seeded at a density of 2,500 cells per well in black-walled, clear bottom 384 well plates (Corning, #3764) and allowed to adhere overnight. Approximately 24 h later, 384 well plates were imaged using an IncuCyte Zoom live cell imager (Essen BioScience Inc., MI, United States) to obtain baseline cellular confluence measurements prior to chemical dosing (0 h). Media was removed from wells and replaced with fresh media containing chemical treatments (exposure media) using a Viaflo liquid handling device (Integra Biosciences, NH, United States). Within 30 min of exposure media application, plates were again imaged for cellular confluence using the IncuCyte Zoom. Plates were incubated with exposure media for 24 h and then imaged again using the IncuCyte Zoom (24 h).
In the same plate evaluated for mitochondrial membrane potential, cell viability measures were duplexed using the CellTiter-Glo (CTG) Luminescent Cell Viability Assay (Promega, WI, United States). CTG reagent was added to each well at a volume of 20 µl. The plate was left at room temperature to incubate for 5 min and then 20 µl from each well was transferred to a low-volume, round-bottom, white 384 well plate (Corning, NY, United States). The CTG reagent lyses cellular and mitochondrial membranes and binds to adenosine triphosphate (ATP) released by cells, which produces a luminescence signal. The intensity of the luminescence was considered a proxy measure for the number of live cells in a well. The luminescence intensities were measured using the CLARIOstar plate reader.
HTTS data were analyzed using a custom data analysis script in R v 1.2.5019 ([R Core Team, 2019]). Briefly, raw data points corresponding to the confluence measurements at 0 and 24 h, the fluorescence intensities corresponding to MMP, and the relative luminescence units (RLU) corresponding to cell viability were imported directly from Microsoft Excel into the R programming environment, RStudio. Separate plates run on separate days using different JEG-3 passages were considered as biologic replicates. […]

JEG-3 cells [2] = assay: Proliferation, change in confluence 0-24 h (IncuCyte Zoom, HTTS); settings: for minimal effective concentration: read-out: Prolif ↓, lowest concentration at which the mean response value exceeded the mean control value ± 2*SD (rough binning); for Prolif ↑, lowest concentration at which the mean response value exceeded the mean control value ± 2*SD (rough binning): increase; for cellular proliferation relative to vehicle control (rough binning): after 24 h, in at least one concentration
From the text: as §1, §2, §3
Plate well bottom images were evaluated using automated cell masking. The automated cell masking program was developed using IncuCyte Zoom base software. Cell masking parameters were defined using a training set of JEG-3 cell images obtained prior to conducting the experiments and following IncuCyte Zoom software recommendations. Briefly, the training images were obtained from cell culture plates with varying levels of JEG-3 cellular confluence (ranging from ∼15% confluent to ∼95% confluent). Parameters for the automated cell masking were first manually set by an experimenter for 3-6 images of low (∼15–30%), medium (∼30–70%), and high confluence (∼70% or greater). The training images were then evaluated by the automated masking program and manually checked to ensure the parameters were sufficiently strict to ignore background (e.g., blank space on the plate well bottom) but adequately sensitive to detect cell borders. The masking program was then implemented on the experimental plates to obtain a baseline cellular confluence measurement at 0 h and a second confluence measurement at 24 h. […]

JEG-3 cells [3] = assay: Mitochondrial membrane potential, JC-10 assay (HTTS); settings: for minimal effective concentration: read-out: MMP ↓, lowest concentration at which the mean response value exceeded the mean control value ± 2*SD (rough binning); for MMP relative to vehicle control (rough binning): after 24 h, in at least one concentration
From the text: as §1, §2, §3
The JC-10 assay (Enzo Life Sciences, NY, United States) was used to evaluate mitochondrial membrane potential, the main bioenergetic parameter that regulates respiratory rate, ATP synthesis and reactive oxygen species generation. In cells with polarized mitochondrial membranes, the JC-10 dye localizes to the mitochondrial matrix and forms red fluorescent aggregates (540/590 nm). In cells with depolarized mitochondrial membranes, the JC-10 dye localizes in the cytoplasm and converts to a green fluorescent monomer (490/525 nm). Mitochondrial membrane potential was calculated as the ratio of the green and red fluorescence intensities within a well.
At the end of the 24 h exposure period, exposure media was removed from the plate. The plate wells were then washed with 1x phosphate buffered saline (1x PBS). After washing, the JC-10 reagent was suspended in fresh 1x PBS and 20 µl was added to each well at a final concentration of 20 μM (Enzo Life Sciences, NY, United States). The plate was incubated for 1 h at 37°C, and the fluorescence intensities at excitation/emission wavelengths of 490/525 nm and 540/590 nm were measured using a CLARIOstar (BMG Labtech, Offenburg, Germany) plate reader, respectively.
HTTS data were analyzed using a custom data analysis script in R v 1.2.5019 ([R Core Team, 2019]). […]

[4] = Homo sapiens, JEG-3, 24 h, read-out: Viability EC50 ± SD, JEG-3 cells, 24 h exposure, four-parameter fit, estimates meeting inclusion criteria
[5] = Homo sapiens, JEG-3, 24 h, read-out: Proliferation EC50 ± SD, JEG-3 cells, 24 h exposure, four-parameter fit, estimates meeting inclusion criteria
[6] = Homo sapiens, JEG-3, 24 h, read-out: proliferation EC50 ± SE, JEG-3 cells, 24 h
[7] = JEG-3 cells, raw model output including fits that did not meet inclusion criteria, read-out: Proliferation EC50 ± SD (raw values)
[8] = JEG-3 cells, 24 h exposure, four-parameter fit, estimates meeting inclusion criteria, read-out: Viability EC50 ± SD
[9] = JEG-3 cells, 24 h exposure, four-parameter fit, estimates meeting inclusion criteria, read-out: Proliferation EC50 ± SD
[10] = JEG-3 cells, 24 h exposure, four-parameter fit, estimates meeting inclusion criteria, read-out: MMP EC50 ± SD

Row | SMILES | EC50 (JEG-3 cells [1]; [4]) [µM] | cell viability relative to vehicle control (rough binning) (JEG-3 cells [1]) | minimal effective concentration (JEG-3 cells [2]; Homo sapiens, JEG-3, 24 h) [µM] | EC50 (JEG-3 cells [2]; [5]) [µM] | Prolif ↑, lowest concentration at which the mean response value exceeded the mean control value ± 2*SD (rough binning) (JEG-3 cells [2]; JEG-3 cells, 24 h) [µM] | MMP relative to vehicle control (rough binning) (JEG-3 cells [3]) | cellular proliferation relative to vehicle control (rough binning) (JEG-3 cells [2]) | EC50 (JEG-3 cells [1]; [8]) [µM] | EC50 (JEG-3 cells [2]; [9]) [µM] | EC50 (JEG-3 cells [3]; [10]) [µM] | also measured
1 | CCN(CC(=O)O)S(=O)(=O)C(F)(F)C(F)(F)C(F)(F)C(F)(F)C(F)(F)C(F)(F)C(F)(F)C(F)(F)F [2-(N-Ethylperfluorooctanesulfonamido)acetic acid] | 203 ± 44.7 | reduced cell viability | 250 | 204 ± 17.7 | 50 | reduced MMP |  |  |  |  | Viability ↓, lowest concentration at which the mean response value exceeded the mean control value ± 2*SD (rough binning) (JEG-3 cells [1]; JEG-3 cells, 24 h): 250 µM; EC50 (JEG-3 cells [2]; [6]): 204 ± 18 µM; minimal effective concentration (JEG-3 cells [3]; Homo sapiens, JEG-3, 24 h): 150 µM
2 | O=C(O)CCC(F)(F)C(F)(F)C(F)(F)C(F)(F)C(F)(F)F [2H,2H,3H,3H-Perfluorooctanoic acid] |  | increased cell viability |  |  | 50 |  | increased cellular proliferation |  |  |  | EC50 (JEG-3 cells [2]; [7]): 951 ± 671 µM; EC50 (JEG-3 cells [3]; JEG-3 cells, raw model output including fits that did not meet inclusion criteria, read-out: MMP EC50 ± SD (raw values)): 71780 ± 10 µM
3 | O=P(O)(OCCC(F)(F)C(F)(F)C(F)(F)C(F)(F)C(F)(F)C(F)(F)F)OCCC(F)(F)C(F)(F)C(F)(F)C(F)(F)C(F)(F)C(F)(F)F [6:2 Fluorotelomer phosphate diester] |  | increased cell viability | 188 | 142 ± 39.2 | 37.5 |  | reduced cellular proliferation; also recorded: increased cellular proliferation |  |  |  | Viability ↑, lowest concentration at which the mean response value exceeded the mean control value ± 2*SD (rough binning) (JEG-3 cells [1]; JEG-3 cells, 24 h, increase): 112.5 µM; EC50 (JEG-3 cells [2]; [6]): 142 ± 39.4 µM; EC50 (JEG-3 cells [3]; Homo sapiens, JEG-3, read-out: MMP EC50 ± SD (raw values), JEG-3 cells, raw model output including fits that did not meet inclusion criteria): 64402 ± 10 µM
4 | O=P(O)(O)OCCC(F)(F)C(F)(F)C(F)(F)C(F)(F)C(F)(F)C(F)(F)F [6:2 Fluorotelomer phosphate monoester] |  |  |  |  |  |  |  | 183 ± 21.7 | 193 ± 3.8 | 248 ± 62.1 | EC50 (JEG-3 cells [1]; JEG-3 cells, 24 h, read-out: viability EC50 ± SE): 183 ± 22 µM; EC50 (JEG-3 cells [2]; JEG-3 cells, 24 h, read-out: proliferation EC50 ± SE): 193 ± 4 µM
5 | O=C(O)C(F)(F)C(F)(F)C(F)(F)C(F)(F)C(F)(F)C(F)(F)C(F)F [8-H-Perfluorooctanoic acid] |  |  |  |  |  |  |  | 318 ± 183 | 441 ± 18.1 | 147 ± 27.1 | 
6 | O=P(O)(OCCC(F)(F)C(F)(F)C(F)(F)C(F)(F)C(F)(F)C(F)(F)C(F)(F)C(F)(F)F)OCCC(F)(F)C(F)(F)C(F)(F)C(F)(F)C(F)(F)C(F)(F)C(F)(F)C(F)(F)F [8:2 Fluorotelomer phosphate diester] |  | reduced cell viability |  |  |  | reduced MMP | reduced cellular proliferation |  |  |  | Viability ↓, lowest concentration at which the mean response value exceeded the mean control value ± 2*SD (rough binning) (JEG-3 cells [1]; JEG-3 cells, 24 h): 50 µM; Prolif ↓, lowest concentration at which the mean response value exceeded the mean control value ± 2*SD (rough binning) (JEG-3 cells [2]; JEG-3 cells, 24 h, decrease): 100 µM; MMP ↓, lowest concentration at which the mean response value exceeded the mean control value ± 2*SD (rough binning) (JEG-3 cells [3]; JEG-3 cells, 24 h, decrease): 350 µM
7 | O=P(O)(O)OCCC(F)(F)C(F)(F)C(F)(F)C(F)(F)C(F)(F)C(F)(F)C(F)(F)C(F)(F)F [8:2 Fluorotelomer phosphate monoester] |  |  |  |  |  |  |  | 360 ± 30.3 | 251 ± 37.6 | 312 ± 29.8 | 
8 | O=S(=O)(O)CCC(F)(F)C(F)(F)C(F)(F)C(F)(F)C(F)(F)C(F)(F)C(F)(F)C(F)(F)F [8:2 Fluorotelomer sulfonic acid] | 160 ± 45.7 |  |  | 321 ± 171 |  |  |  |  |  |  | EC50 (JEG-3 cells [1]; Homo sapiens, JEG-3, 24 h, read-out: viability EC50 ± SE, JEG-3 cells, 24 h): 160 ± 46 µM; EC50 (JEG-3 cells [3]; Homo sapiens, JEG-3, 24 h, read-out: MMP EC50 ± SD, JEG-3 cells, 24 h exposure, four-parameter fit, estimates meeting inclusion criteria): 331 ± 5.7 µM
9 | O=C(O)C(F)(F)C(F)(F)C(F)(F)C(F)(F)C(F)(F)C(F)(F)C(F)(F)C(F)F [9-H-Perfluorononanoic acid] |  |  |  |  |  |  |  | 350 ± 43.1 |  | 187 ± 27.6 | EC50 (JEG-3 cells [2]; [7]): 1230 ± 118 µM
10 | O=C(O)C(F)(F)OC(F)(F)C(F)(F)OC(F)(F)C(F)(F)OC(F)(F)F [Perfluoro-3,6,9-trioxadecanoic acid] | 267 ± 26.8 |  | 350 | 303 ± 30.1 |  | reduced MMP | reduced cellular proliferation |  |  |  | minimal effective concentration (JEG-3 cells [3]; Homo sapiens, JEG-3, 24 h): 450 µM
